pIC50: −log10 of the molar value.

From patent US7598032B2, “Thermostable DNA polymerases incorporating nucleoside triphosphates labeled with fluorescent dyes” (Roche Molecular Systems, priority 1997, dated 2009) come the findings set out here.

The target of the assay is T1, Thermus aquaticus (Taq) DNA polymerase variant G46D F667Y E681K (Thermus aquaticus, UniProt P19821, E681K/F667Y/G46D).
T1 construct: Expression vector pRDA3-2 contains the full-length Taq DNA polymerase gene; made in house; host or cells: E. coli DG116 (plasmid pLK113)
As to the kind of experiment: Limiting template primer extension competition assay (ddNTP incorporation), G46D F667Y E681K Taq. The class given is biochemical. The protocol:
The ability of the enzymes of this invention to efficiently incorporate nucleotides labeled with fluorescein family dyes is measured by ddNTP incorporation assays. One such assay is a primer extension competition assay conducted under conditions of limiting template. In this assay, a primer DG48 (5′-[…]), (SEQ ID NO: 11), bound to M13 mp18 template (Innis et al., 1988, Proc. Natl. Acad. Sci. USA 85:9436) is extended in the presence of [α-^33P]dCTP and excess enzyme with various levels of a fluorescently labeled ddNTP, Zowie-ddCTP. Because the incorporation of a ddCTP residue terminates the extension reaction, the more readily a DNA polymerase incorporates a ddCTP into an extended primer, the less [α-^33P]dCTP can be incorporated. Thus, as the efficiency of fluorescently labeled ddCTP incorporation increases, the extent of inhibition of DNA synthesis is increased. The reactions were also performed with various levels of an unlabeled ddCTP. […]
The relative abilities of G46D F667Y Taq, G46D F667Y E681K Taq and F730Y Tma30 DNA polymerases to incorporate a fluorescein dye family-labeled ddCTP were compared by use of a limiting template, primer extension competition assay. […] In this competition assay, because the incorporation of a ddCTP terminates the extension reaction, the more readily the polymerase incorporates a ddCTP into an extended primer, the less [α-^33P]dCTP can be incorporated. […]

T1 sequence (P19821 whole entry G46D/F667Y/E681K): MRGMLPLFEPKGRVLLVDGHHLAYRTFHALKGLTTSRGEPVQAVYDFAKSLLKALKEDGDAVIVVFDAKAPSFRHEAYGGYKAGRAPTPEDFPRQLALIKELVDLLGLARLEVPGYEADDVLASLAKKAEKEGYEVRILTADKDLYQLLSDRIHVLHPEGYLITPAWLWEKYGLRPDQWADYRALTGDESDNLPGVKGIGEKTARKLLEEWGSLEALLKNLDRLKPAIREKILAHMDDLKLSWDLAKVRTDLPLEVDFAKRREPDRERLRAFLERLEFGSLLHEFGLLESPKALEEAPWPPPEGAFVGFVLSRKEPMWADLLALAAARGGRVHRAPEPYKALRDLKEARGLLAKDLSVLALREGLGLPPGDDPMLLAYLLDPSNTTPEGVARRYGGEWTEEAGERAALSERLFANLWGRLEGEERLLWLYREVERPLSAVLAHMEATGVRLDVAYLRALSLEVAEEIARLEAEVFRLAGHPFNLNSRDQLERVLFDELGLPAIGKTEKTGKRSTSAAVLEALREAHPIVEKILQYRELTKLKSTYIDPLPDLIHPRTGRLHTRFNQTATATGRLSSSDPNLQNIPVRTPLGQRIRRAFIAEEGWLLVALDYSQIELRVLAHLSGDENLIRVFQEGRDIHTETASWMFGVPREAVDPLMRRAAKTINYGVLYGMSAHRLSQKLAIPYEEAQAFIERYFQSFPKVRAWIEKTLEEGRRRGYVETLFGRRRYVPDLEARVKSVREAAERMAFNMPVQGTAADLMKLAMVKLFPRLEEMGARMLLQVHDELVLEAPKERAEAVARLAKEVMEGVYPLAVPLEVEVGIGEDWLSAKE

On to `Nc1ccn([C@H]2CC[C@@H](COP(=O)(O)OP(=O)(O)OP(=O)(O)O)O2)c(=O)n1` [ddCTP], for which the negative-log IC50 (pIC50) is 6.94.
